According to article PMC12876990, “Targeting secreted PLA2 interactions with EGFR and vimentin to arrest prostate tumour growth” (Cell Death & Disease, 2025):
Square brackets hold non-standard residues; d marks the D form. Peptide text beside a SMILES is read from it. 2Nal = N[C@@H](Cc1ccc2ccccc2c1)C(=O)O

Columns and labels:
[1] = 28-day oral toxicity study: haematology analysis; format: in vivo, male Sprague Dawley rats; conditions: for MCHC: calculated value
Experimental: Blood analyse s (haematology and biochemistry) w ere performed on all animals on Day 29 (main groups) or Day 43 (recovery groups). Approximately 4 mL of blood was taken from ea ch animal by cardiac puncture using a 10 mL syringe and 21-gauge needle. The procedure involved anaesthetising by intraperitoneal injection of sodi um pentobarbitone using a 2 mL sterile plastic syringe attached to a 26-gauge needle (Terumo).
For each blood sampling, the blood was divided into two aliquots: (i) one was placed into a tube containing EDTA (for whole blood and EDTA plasma), (ii) one aliquot into a Li-heparin tube.
3.9.1. Haematology analysis
The following parameters were analysed: Red blood cell (RBC), haemoglobin (Hb), haematocrit (Hct), mean corpuscular volume (MCV), mean corpuscular haemoglobin (MCH), mean corpuscular haemoglobin concentration (MCHC), platelet count (PLT), mean platelet volume (MPV), white blood count (WBC), neutrophil (Neut), lymphocyte (Lymph), monocytes (Mono), eosinophil (Eos), basophil (Baso).
Results and methods of analysis were attached in an appendix to the report (Appendix D Haematology and Biochemistry). Blood smear s for cell morphology were prepared. By convention only abnormal findings on smear evaluation were reported. […]
Haematology and Biochemistry). […]
(Appendix C Study Data Spreadsheets). […]

[2] = 28-day oral toxicity study: histopathology; format: in vivo, male Sprague Dawley rats; conditions: Gr 3, 20 mg/kg vs Gr 1
Experimental: organs. Tissues and carcas ses were placed in 10% formalin. The tissues to be processed for histopathological examinations were fixed for at least 48 hours prior to cassette preparation.
The organ weights and gross pathology changes a re included in a spreadsheet as an appendix to the report (Appendix C Study Data Spreadsheets).
3.12. Tissue proces sing / Slide preparation
The tissues were placed in labelled cassette s and placed in an automated tissue processor and taken through several stages of alcohol dehydration, solvent clearing and wax infiltration.
Infiltrated tissues were embedded in wax blo ck s, which were sectioned on a microtome at between 4 and 6 µm. Sections were placed on pre-labelled glass slides and stained with haematoxylin and eo sin (H&E). Stained section s were dehydrated, then solvent cl eared and […]
Histopathological examinations were p erformed on all animals in the vehicle control and high dose treated groups (main study) on the following tissues/organs: adrenal glands, bone marrow, brain, epididymis, heart, kidney, liver, lung, lymph node: mesenteric, prostate, seminal v esicle s with coagulating glands, small and l arge intesti ne (including Peyer’s patches), spinal cord, spleen, stomach, thymus, thyroid gland, trachea, testes and urinary bladder. Slides were evaluated for histology change s under light microscopy at a magnification of 100 to 1000 times.
Individual histopathology results and a summar y are attached a s an app endix to the report (Appendix E Histopathology).
3.14. Statistical analyses
Clinical observations, detailed clinical observations, functional observations, blood and urine analyses and histopathology were summarised by descriptive analysis.
Statistical analyses, consisting of unpaired t-tests, were performed on measured variables: percentage body weight gain s, food consumption and organ weights as a percentage of body weight. A significance level of P < 0.05 was used for all tests.
St Geo rge C lini c al S chool

[3] = 28-day oral toxicity study: urinalysis; format: in vivo, male Sprague Dawley rats
Description: Haematology and Biochemistry).
Urine was collected at the end of the study (on Days 29 and 43 for main and recovery groups, respectively) by placing a urine collection tube at the opening of the urethra and any urine expressed by the animal wa s collected. If no urine came out, pressure was gently applied on the bladder area of the abdomen.
Urine was also collected by bladder puncture at the time of death to maximise the volume collected. The animal was placed in lateral recumbency and the abdominal cavity opened. A needle attached to the syringe w as in serted int o the bladder and urine withdrawn with the plunger. The urine sample was expelled from the syringe into the collection tube.
The urine samples were an alysed, individual re su lts are pres ented a s an appendix to the report (Appendix C Study Data Spreadsheets). […]

[4] = Pharmacokinetics of tritiated cF and c2 in BALB/c mice; format: in vivo
Experimental: All animal studies were performed according to the guidelines for the ethical use of animals published by the National Health and Medical Research Council of Australia. Mouse pharmacokinetic studies were conducted with approval from the Garvan Institute Animal Ethics Committee (approval #02/21). cF and c2 were radioactively labelled with tritium by catalytic saturation of peptide analogues containing dehydroleucine (Sibtech Inc.), yielding high specific activity (50–60 Ci/mmol) peptides. Their identity was confirmed by three separate analytical methods prior to delivery. Mice (BALB/c, n = 4 per timepoint) were administered a single dose of peptide by the routes and times indicated. Animals were then exsanguinated by cardiac puncture under halothane anaesthesia followed by cervical dislocation. Tissues and plasma were stored at −80 °C prior to analysis. For plasma, a known volume of plasma was added to liquid scintillant (Ultima Gold, Perkin Elmer). For tissues, a known amount of tissue (50–100 mg) was incubated in NaOH (1 mL, 1 M) overnight at room temperature. The solutions were then bleached with disodium EDTA (100 µl, 0.1%) and hydrogen peroxide (300 µl, 30%) and incubated at 50 °C for one hour. The peptide content of plasma and tissues was determined by liquid scintillation counting. The stability of the peptides following administration to animals was evaluated by thin-layer chromatography of tissue-extracted peptide relative to peptide prior to injection (Fig. S2c).

[5] = Day 43, Gr 5 recovery, 20 mg/kg

## CC(C)C[C@@H]1NC(=O)[C@H](Cc2ccc3ccccc3c2)NC(=O)[C@H](CCCNC(=N)N)NC(=O)[C@H](Cc2ccc3ccccc3c2)NC(=O)[C@H](CO)NC1=O [c2, cyclo-((2-Nal)-Leu-Ser-(2-Nal)-Arg)] (cyclo([2Nal]LS[2Nal]R))
[1]; Day 29, Gr 2, 1 mg/kg
  Hb: 157 ± 4.7 g/L
  PLT: 1184 ± 127.7 x 109 / L
  MCHC: 344 ± 5.1 g/L
[1]; Day 29, Gr 3, 20 mg/kg
  Hb: 159 ± 3.0 g/L
  PLT: 1191 ± 93.8 x 109 / L
  MCHC: 351 ± 4.0 g/L
[1]; Day 29 and Day 43
  blood haematology: no obvious test item related effect
[1]; [5]
  Baso: 0 L⁻¹
  Hb: 154 ± 1.8 g/L
  PLT: 1182 ± 143.7 x 109 / L
  MCHC: 353 ± 4.2 g/L
[2]
  histopathology: large intestine: colon: No treatment-related differences
  histopathology: liver: No treatment-related differences
  histopathology: small intestine: ileum: No treatment-related differences
  histopathology: stomach: No treatment-related differences
[3]; Day 29, Gr 2, 1 mg/kg
  Urine bilirubin: animals Negative: 8/8
  Urine blood: animals Negative: 8/8
  Urine glucose: animals Negative: 8/8
  Urine ketone: animals Small: 1/8
  Urine ketone: animals Trace: 5/8
  Urine leucocytes: animals Negative: 8/8
  Urine nitrite: animals Negative: 8/8
  Urine protein: animals 1+: 4/8
  Urine protein: animals 2+: 2/8
  Urine protein: animals Trace: 2/8
  Urobilinogen: animals Normal: 8/8
[3]; Day 29, Gr 3, 20 mg/kg
  Urine bilirubin: animals Negative: 9/9
  Urine blood: animals Negative: 9/9
  Urine glucose: animals Negative: 9/9
  Urine ketone: animals Negative: 1/9
  Urine ketone: animals Small: 4/9
  Urine ketone: animals Trace: 4/9
  Urine leucocytes: animals Negative: 9/9
  Urine nitrite: animals Negative: 9/9
  Urine protein: animals 1+: 7/9
  Urine protein: animals 2+: 2/9
  Urobilinogen: animals Normal: 9/9
[3]; Day 29 and Day 43
  urine parameters: no obvious effects
[3]; [5]
  Urine bilirubin: animals Negative: 5/5
  Urine blood: animals Negative: 3/5
  Urine blood: animals Small: 1/5
  Urine blood: animals Trace: 1/5
  Urine glucose: animals Negative: 5/5
  Urine ketone: animals Negative: 2/5
  Urine ketone: animals Trace: 3/5
  Urine leucocytes: animals Negative: 5/5
  Urine nitrite: animals Negative: 5/5
  Urine protein: animals 1+: 2/5
  Urine protein: animals 2+: 1/5
  Urine protein: animals Negative: 2/5
  Urobilinogen: animals Normal: 5/5
[4]; sc and po administration
  oral bioavailability (in words): orally bioavailable
[4]; tritiated peptide 5 mg/kg, po vs sc, at 16 hours
  oral bioavailability relative to sc delivery (AUC analysis): ~ 10%
